According to ChEMBL document CHEMBL1201862, “PubChem BioAssay data set” (2004):
The source made the active and inactive calls.

Legend:
H9c2 = experiment: cells; assay type: functional, cell-based; conditions: Rattus norvegicus, H9c2, Myocardium;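 note: confirmatory concentration-response retest of ultra-high-throughput screening hits for modulation of myocardial damage; cell death induced by hydrogen peroxide oxidative stress; compound pretreatment for 60 min then peroxide exposure for 2 h; potency is for protecting the cells against peroxide damage rather than for killing them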
cells = assay type: functional
[1] = target: FAD-linked sulfhydryl oxidase ALR (Homo sapiens, UniProt P55789); experiment: ALR-catalysed DTT oxidation blockers – biochemical, H2O2 detection, luminescence, cherry-pick, dose response (AID 493248)
Chain of FAD-linked sulfhydryl oxidase ALR (P55789 whole entry): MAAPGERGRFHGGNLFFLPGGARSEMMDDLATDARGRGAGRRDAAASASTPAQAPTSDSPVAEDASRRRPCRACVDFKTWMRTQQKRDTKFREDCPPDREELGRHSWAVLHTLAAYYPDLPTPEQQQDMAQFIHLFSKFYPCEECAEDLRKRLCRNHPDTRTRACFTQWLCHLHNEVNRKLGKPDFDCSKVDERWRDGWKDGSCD

[2] = target: T1, Calpain-2 catalytic subunit (Sus scrofa, UniProt P43367); experiment: m-calpain protease blockers, concentration series – biochemical, fluorogenic peptide substrate, dose response (AID 1420); assay type: functional
T1 sequence (P43367 whole entry): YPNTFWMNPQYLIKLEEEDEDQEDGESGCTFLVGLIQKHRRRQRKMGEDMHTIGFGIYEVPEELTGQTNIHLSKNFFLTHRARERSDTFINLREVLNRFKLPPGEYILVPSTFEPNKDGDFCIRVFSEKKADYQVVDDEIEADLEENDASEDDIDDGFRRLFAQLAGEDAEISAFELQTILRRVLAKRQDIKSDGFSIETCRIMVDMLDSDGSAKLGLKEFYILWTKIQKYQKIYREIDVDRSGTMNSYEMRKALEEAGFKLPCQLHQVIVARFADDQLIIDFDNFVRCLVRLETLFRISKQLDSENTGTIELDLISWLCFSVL

Leucine aminopeptidase = target: T2, Leucine aminopeptidase (Plasmodium falciparum 3D7, UniProt Q8IL11); experiment: P. falciparum M17LAP inhibitors, primary screen, biochemical, fluorogenic H-Leu-NHMec substrate, 1536-well (AID 1619); assay type: functional
T2 sequence (Q8IL11 whole entry): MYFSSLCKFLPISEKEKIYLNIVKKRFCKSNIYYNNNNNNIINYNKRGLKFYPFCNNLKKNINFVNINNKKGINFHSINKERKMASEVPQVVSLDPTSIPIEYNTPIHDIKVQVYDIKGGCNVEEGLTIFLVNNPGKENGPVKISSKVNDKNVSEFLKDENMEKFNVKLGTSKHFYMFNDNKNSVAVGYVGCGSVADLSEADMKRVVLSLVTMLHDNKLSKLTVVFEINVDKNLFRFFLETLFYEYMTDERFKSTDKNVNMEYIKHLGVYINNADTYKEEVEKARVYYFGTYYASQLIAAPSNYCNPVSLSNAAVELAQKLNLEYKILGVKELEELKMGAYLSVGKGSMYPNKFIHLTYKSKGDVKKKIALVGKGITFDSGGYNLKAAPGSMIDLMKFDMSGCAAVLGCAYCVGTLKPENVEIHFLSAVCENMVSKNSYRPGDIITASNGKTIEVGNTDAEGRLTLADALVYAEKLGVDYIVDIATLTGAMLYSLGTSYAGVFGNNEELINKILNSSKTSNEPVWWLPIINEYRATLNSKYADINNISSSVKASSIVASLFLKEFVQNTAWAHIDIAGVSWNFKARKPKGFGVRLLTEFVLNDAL

[3] = target: T3, Rac GTPase-activating protein 1 (Homo sapiens, UniProt Q9H0H5); experiment: blockers of MgcRacGAP-driven Rac1 GTP hydrolysis – biochemical, ADP Hunter fluorescence, primary and confirmatory, confirmation (AID 624330); assay type: functional
T3 sequence (Q9H0H5 whole entry): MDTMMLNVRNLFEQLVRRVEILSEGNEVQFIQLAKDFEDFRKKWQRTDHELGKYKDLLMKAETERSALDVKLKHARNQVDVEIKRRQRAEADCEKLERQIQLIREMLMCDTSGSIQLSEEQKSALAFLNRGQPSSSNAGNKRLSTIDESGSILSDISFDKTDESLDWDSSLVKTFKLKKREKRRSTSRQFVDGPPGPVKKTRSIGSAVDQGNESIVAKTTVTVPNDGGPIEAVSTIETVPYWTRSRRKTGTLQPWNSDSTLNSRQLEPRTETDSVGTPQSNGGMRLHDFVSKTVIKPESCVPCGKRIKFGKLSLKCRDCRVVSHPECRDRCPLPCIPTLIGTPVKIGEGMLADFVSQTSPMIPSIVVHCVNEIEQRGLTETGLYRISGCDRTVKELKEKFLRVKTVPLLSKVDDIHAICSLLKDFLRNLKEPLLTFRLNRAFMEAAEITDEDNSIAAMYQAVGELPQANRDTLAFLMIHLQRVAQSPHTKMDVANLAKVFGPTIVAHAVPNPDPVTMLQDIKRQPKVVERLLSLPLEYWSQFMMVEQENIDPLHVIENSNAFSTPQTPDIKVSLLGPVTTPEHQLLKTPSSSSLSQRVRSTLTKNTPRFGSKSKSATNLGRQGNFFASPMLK

[4] = target: Induced myeloid leukemia cell differentiation protein Mcl-1 (Homo sapiens, UniProt Q07820); assay type: functional
Chain of Induced myeloid leukemia cell differentiation protein Mcl-1 (Q07820 whole entry): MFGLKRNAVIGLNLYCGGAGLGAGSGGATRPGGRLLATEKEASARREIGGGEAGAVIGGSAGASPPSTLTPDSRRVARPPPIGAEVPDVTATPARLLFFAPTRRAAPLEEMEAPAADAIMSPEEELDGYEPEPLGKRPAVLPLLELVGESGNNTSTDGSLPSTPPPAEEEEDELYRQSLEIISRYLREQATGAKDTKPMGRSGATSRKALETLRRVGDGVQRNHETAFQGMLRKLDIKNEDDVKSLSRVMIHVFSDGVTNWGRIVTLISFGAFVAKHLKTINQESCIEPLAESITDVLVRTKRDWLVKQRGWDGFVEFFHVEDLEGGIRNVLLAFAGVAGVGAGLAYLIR

H4 = experiment: Luminescence Cell-Based Dose Response HTS to Identify Activators of 5'UTR Stem-Loop Driven Prion Protein mRNA Translation in H4 Neuroglioblastoma Cells. [Related pubchem assays: 1829 (Project Summary), 1814 (Primary HTS)]; assay type: functional; conditions: Homo sapiens
[5] = Luminescence Cell-Based Dose Response HTS to Identify Activators of Luciferase Translation or Activity in H4 […] Cells. [Related pubchem assays: 1829 (Project Summary), 1814 (Primary HTS)]; assay type: functional
Cytochrome P450 3A4 = Cytochrome P450 3A4 (Homo sapiens, UniProt P08684); conditions: Potency;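 note: confirmatory qHTS run detecting inhibitors and substrates of CYP3A4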
Chain of Cytochrome P450 3A4 (P08684 whole entry): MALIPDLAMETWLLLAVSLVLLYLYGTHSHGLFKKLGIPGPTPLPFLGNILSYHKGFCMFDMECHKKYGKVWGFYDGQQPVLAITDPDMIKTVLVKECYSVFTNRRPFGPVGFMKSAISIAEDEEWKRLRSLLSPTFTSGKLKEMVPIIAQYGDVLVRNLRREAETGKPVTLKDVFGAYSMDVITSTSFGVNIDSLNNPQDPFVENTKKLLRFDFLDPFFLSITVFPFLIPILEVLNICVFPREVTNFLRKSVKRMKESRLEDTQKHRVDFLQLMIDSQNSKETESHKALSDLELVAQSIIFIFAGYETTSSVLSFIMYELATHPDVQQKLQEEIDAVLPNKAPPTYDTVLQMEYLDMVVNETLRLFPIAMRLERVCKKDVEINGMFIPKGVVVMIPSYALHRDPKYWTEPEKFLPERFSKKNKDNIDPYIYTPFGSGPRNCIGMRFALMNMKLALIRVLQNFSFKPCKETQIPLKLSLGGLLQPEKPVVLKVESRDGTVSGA

[6] = Trypanosoma cruzi growth suppression in host cells – NIH3T3 host cells, beta-gal luminescence, confirmation (AID 2044); assay type: functional, cell-based;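 note: intracellular parasites grown in NIH/3T3 mouse fibroblasts as host cells; luminescent beta-galactosidase reporter signal from transgenic T. cruzi replicating inside host cells; inhibitors lower the luminescence signal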
[7] = NIH3T3 cell viability loss – ATP luminescence, mouse fibroblasts, counter-screen, dose response (AID 2010); assay type: functional, cell-based;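 note: cells exposed to compound for about 90 hours before reading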
[8] = alpha-synuclein stem-loop luciferase translation blockers – H4 neuroglioma cells, luminescence, confirmation (AID 1988); assay type: functional, cell-based
[9] = Luminescence Cell-Based Dose Response HTS to Identify Inhibitors of 5'UTR Stem-Loop Driven Prion Protein mRNA Translation in H4 Neuroglioblastoma Cells. [Related pubchem assays: 1827 (Project Summary), 1813 (Primary HTS)]; assay type: functional
[10] = luciferase reporter signal suppression in cells – H4 neuroglioma cells, luminescence, dose response (AID 1990); assay type: functional, cell-based
Large T antigen = Large T antigen (Simian virus 40, UniProt P03070); assay type: functional, Betapolyomavirus macacae;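 note: Confirmatory-stage PubChem screen for compounds that inhibit SV40 T antigen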
Chain of Large T antigen (P03070 whole entry): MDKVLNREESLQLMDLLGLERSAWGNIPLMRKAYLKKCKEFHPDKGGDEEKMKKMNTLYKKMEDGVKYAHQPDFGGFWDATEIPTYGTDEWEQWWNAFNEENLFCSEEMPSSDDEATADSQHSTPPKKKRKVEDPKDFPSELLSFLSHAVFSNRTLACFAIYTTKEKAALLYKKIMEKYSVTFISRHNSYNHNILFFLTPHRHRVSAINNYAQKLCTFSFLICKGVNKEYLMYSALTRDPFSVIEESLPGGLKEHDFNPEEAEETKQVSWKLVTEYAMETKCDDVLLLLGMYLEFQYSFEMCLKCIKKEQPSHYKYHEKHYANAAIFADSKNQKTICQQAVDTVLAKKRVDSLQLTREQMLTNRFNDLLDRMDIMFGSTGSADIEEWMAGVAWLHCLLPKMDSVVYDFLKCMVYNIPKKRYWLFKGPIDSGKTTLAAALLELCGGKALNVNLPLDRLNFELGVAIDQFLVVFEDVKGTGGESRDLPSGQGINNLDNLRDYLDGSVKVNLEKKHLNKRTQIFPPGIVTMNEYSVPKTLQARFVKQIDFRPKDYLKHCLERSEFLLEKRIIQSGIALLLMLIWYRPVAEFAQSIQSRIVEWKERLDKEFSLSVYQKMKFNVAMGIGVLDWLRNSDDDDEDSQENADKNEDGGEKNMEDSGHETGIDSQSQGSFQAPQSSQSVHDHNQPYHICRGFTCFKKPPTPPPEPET

Cytochrome P450 2D6 = Cytochrome P450 2D6 (Homo sapiens, UniProt P10635);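 note: CYP2D6 member of a cytochrome P450 panel assay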
Chain of Cytochrome P450 2D6 (P10635 whole entry): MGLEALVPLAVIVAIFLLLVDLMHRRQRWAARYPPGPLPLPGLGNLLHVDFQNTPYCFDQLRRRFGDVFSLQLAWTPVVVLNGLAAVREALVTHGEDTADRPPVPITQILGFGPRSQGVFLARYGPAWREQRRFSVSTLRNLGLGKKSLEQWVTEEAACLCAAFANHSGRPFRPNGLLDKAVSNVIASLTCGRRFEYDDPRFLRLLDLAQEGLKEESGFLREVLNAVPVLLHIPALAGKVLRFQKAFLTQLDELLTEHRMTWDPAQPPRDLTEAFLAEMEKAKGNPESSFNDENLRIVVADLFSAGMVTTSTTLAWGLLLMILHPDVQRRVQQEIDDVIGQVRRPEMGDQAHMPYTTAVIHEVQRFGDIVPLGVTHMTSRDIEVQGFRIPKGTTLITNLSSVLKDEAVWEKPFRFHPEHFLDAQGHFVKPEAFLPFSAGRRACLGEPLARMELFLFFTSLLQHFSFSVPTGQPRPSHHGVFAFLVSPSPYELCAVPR

[11] = target: T4, Corticotropin-releasing factor receptor 2/Corticotropin-releasing factor-binding protein (Homo sapiens, UniProt P24387+Q13324); experiment: activators of CRF receptor 2 with binding protein – uHTS hits, confirmation (AID 602473); assay type: functional; conditions: read-out: EC50_Mean
T4 sequence (Q13324 whole entry): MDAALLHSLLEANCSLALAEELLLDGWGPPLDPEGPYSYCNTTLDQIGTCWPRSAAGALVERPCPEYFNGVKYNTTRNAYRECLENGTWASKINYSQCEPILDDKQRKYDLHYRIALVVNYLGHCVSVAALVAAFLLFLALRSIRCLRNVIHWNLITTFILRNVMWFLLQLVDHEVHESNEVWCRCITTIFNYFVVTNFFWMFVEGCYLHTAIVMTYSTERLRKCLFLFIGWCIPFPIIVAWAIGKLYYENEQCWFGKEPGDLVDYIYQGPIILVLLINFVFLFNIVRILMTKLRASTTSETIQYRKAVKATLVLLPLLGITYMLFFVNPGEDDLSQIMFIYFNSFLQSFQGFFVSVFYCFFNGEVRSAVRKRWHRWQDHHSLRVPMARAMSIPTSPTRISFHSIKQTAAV
T4 sequence (P24387 whole entry): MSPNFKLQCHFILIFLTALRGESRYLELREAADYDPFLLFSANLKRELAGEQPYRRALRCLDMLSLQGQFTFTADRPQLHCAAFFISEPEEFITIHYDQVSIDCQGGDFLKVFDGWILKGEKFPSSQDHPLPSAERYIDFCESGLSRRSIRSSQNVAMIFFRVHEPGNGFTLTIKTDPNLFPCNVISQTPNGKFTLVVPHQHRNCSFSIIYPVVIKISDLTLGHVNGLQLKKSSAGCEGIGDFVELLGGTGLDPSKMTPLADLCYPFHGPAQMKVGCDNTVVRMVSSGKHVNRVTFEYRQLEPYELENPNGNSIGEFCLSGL

Genome polyprotein = Genome polyprotein (dengue virus type 2, UniProt P29990); experiment: flavivirus cap methylation enzyme inhibition – biochemical, confirmation dose response, primary screen (AID 588689); assay type: functional
Chain of Genome polyprotein (P29990 2492-3391 limits assumed): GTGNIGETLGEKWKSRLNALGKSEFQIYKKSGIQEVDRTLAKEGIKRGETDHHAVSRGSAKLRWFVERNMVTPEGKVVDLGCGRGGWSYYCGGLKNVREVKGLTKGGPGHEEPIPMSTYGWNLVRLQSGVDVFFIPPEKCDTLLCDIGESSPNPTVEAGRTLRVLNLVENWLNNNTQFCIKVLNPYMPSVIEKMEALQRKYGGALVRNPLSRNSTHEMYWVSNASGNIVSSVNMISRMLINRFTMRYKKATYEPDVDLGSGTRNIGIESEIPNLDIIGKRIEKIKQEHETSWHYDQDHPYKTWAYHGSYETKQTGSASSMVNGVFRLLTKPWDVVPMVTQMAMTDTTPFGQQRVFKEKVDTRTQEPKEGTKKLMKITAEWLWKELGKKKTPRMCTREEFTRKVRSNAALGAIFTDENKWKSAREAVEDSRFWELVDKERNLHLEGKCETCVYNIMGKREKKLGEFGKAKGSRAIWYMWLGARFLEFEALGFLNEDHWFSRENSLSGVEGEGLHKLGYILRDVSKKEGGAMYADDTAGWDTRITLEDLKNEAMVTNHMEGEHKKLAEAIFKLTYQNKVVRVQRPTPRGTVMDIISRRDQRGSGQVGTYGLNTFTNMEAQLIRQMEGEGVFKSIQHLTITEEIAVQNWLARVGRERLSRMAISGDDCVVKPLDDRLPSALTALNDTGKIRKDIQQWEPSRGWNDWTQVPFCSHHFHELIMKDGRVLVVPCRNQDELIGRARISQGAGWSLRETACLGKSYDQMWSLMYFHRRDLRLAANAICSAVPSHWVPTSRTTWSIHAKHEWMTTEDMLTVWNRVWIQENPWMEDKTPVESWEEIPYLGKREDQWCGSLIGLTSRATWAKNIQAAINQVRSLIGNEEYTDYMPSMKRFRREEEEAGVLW

O=C1NC(Cc2ccc(O)cc2)c2nc3ccc(F)cc3c(=O)n2-c2cc3ccccc3cc21 (stereo not drawn)
IC50 (H9c2): > 79 µM (inactive)

COC(=O)c1ccc(COC(=O)c2ccccn2)cc1
IC50 (cells): 26.6 µM (active)

Cn1c(=O)n(CCc2ccccc2)c(=O)c2c1nc1n2CCCN1Cc1ccccc1
IC50 (H9c2): > 79 µM (inactive)

O=C(O)c1ccc(N2C(=O)/C(=C/c3nc4ccccc4[nH]3)SC2=S)cc1
AC50 [1]: 0.009 µM (active)

COC(=O)COc1ccc2cc(-c3ccc(OC)cc3)c(=O)oc2c1
IC50 (cells): 1.12 µM (active)

Cc1ccc(C(=O)Nc2nc(-c3ccc([N+](=O)[O-])cc3)cs2)o1
AC50 [1]: 0.675 µM (active)

Cc1ccc(NC(=O)CN(C)C(=O)CCCN2C(=O)c3ccccc3C2=O)cc1
IC50 [2]: 10.3 µM (not active)

CC(=O)Nc1c(O)nc(SCC(=O)Nc2cccc(C)c2)[nH]c1=O
IC50 (Leucine aminopeptidase): 9.85 µM (active)

CC(=O)N1CCN=C1SCc1ccccc1F
AC50 [1]: 13.9 µM (active)

O=[N+]([O-])c1c(O)nc(/C=C\c2ccc(O)cc2)nc1O
IC50 [3]: 50.6 µM (active) | AC50 [1]: 4.4 µM (active)

Cc1cc(C)c(NC(=O)Cn2cc3c(n2)CCCC3)c(C)c1
IC50 [2]: 20.5 µM (not active)

O=C(O)C1CC=CCC1C(=O)Nc1ccc2c(c1)OCCO2 (stereo not drawn)
IC50 (Leucine aminopeptidase): 13.4 µM (active)

CC1CCN(C(=O)COC(=O)c2cc3ccccc3cc2O)CC1
IC50 (cells): 0.9 µM (active)

CC(=O)c1sc2nc(-c3cccs3)ccc2c1N
IC50 [4]: 7.08 µM (not active) | EC50 (H4): 33.2 µM (inconclusive) | EC50 [5]: > 120 µM (not active)

COc1ccc(CCNC(=O)c2cc(C(=O)c3cc(C)ccc3O)cn(CCc3ccc(OC)cc3)c2=O)cc1
IC50 (H9c2): > 79 µM (inactive)

COc1ccc(-c2coc3ccc(OC4OC(COC(C)=O)C(OC(C)=O)C(OC(C)=O)C4OC(C)=O)cc3c2=O)cc1 (stereo not drawn)
AC50 (Cytochrome P450 3A4): 1.58 µM (inconclusive)

CCOC(=O)c1cnc(SC)nc1Oc1cccc(NC(=O)c2cccc(Cl)c2Cl)c1
IC50 (H9c2): > 79 µM (inactive)

c1csc(-c2nc3ccccn3c2NC2CCCCC2)c1
AC50 [1]: 0.678 µM (active)

CCOC(=O)N1CCC(N2CCCC(C(=O)c3ccc4cc(OC)ccc4c3)C2)CC1 (stereo not drawn)
EC50 [6]: 1.12 µM (active) | EC50 [7]: 56.6 µM (active) | IC50 (cells): 21.9 µM (active)

Cn1c(NCc2ccccc2)nc2c1c(=O)n(Cc1ccc(Br)cc1)c(=O)n2C
EC50 [8]: 12.4 µM (active) | EC50 [9]: 18 µM (active) | EC50 [10]: 13.5 µM (active) | IC50 [2]: 5.48 µM (active)

O=C(NCC(c1cccnc1)N1CCN(c2ccccc2)CC1)OCc1ccccc1 (stereo not drawn)
AC50 [1]: 6.15 µM (active)

CNC(=O)c1ccc(-c2sc3nc(N4CCOCC4)c4c(c3c2N)CC(C)(C)OC4)o1
IC50 (Large T antigen): 2.6 µM (active) | IC50 (H9c2): > 79 µM (inactive) | AC50 (Cytochrome P450 2D6): 15.8 µM (inconclusive)

CCOC(=O)CSc1nc2c(sc(=S)n2-c2ccccc2)c(=O)[nH]1
IC50 (Leucine aminopeptidase): 35.6 µM (active)

COc1ccc(C(CC(=O)N2CCN(c3ccccc3)CC2)c2c(OC)cc(OC)c3ccc(=O)oc23)cc1 (stereo not drawn)
IC50 (H9c2): 11.4 µM (active)

CCCOc1ccc(NC(=O)C2CC(=O)N(C(C)C)C2)cc1 (stereo not drawn)
IC50 (Leucine aminopeptidase): 99.7 µM (active)

O=C(CC1SC(=O)N(c2ccccc2)C1=O)Nc1cccc2ccccc12 (stereo not drawn)
IC50 (Large T antigen): 70.4 µM (active)

COc1cc(/C=N/Nc2nc3ccccc3nc2O)ccc1O
IC50 (Large T antigen): 18 µM (active)

O=C(Nc1ccc(Oc2ccccc2)cc1)C1CCCN(c2ncccn2)C1 (stereo not drawn)
EC50 [11]: > 53 µM (inactive) | IC50 [2]: 14.7 µM (not active)

C/C(=N\Nc1cccc(C(=O)O)c1)c1ccc2c(c1)Nc1ccccc1S2
IC50 [4]: 0.431 µM (active) | IC50 (Genome polyprotein): > 100 µM (active)

COc1ccc(OC)c(C(=O)N2CCCC(Nc3ccc(F)cc3)C2)c1 (stereo not drawn)
AC50 [1]: 1.92 µM (active)

O=C(CCCn1c(SCC(=O)c2ccc(O)c(O)c2)nc2ccccc2c1=O)NCC1CCCO1 (stereo not drawn)
IC50 (H9c2): 17.4 µM (active)

CN(C)c1ccc(CNC(=O)c2cc(S(=O)(=O)N3CCCC3)cn2C)cc1
AC50 [1]: 8.78 µM (active)

CCCCCc1c2c(cc(O)c1C(=O)O)OC(=O)c1cc(C(=O)CCCC)c(OC)cc1O2
IC50 (Genome polyprotein): 39 µM (active)

CC1=NNC(=O)C1CC(=O)N/N=C(\C)c1cccs1 (stereo not drawn)
IC50 (Leucine aminopeptidase): 3.56 µM (active)

CN(C)c1ccc(NC(=O)CN2CCN(CC(=O)Nc3ccc(F)cc3)CC2)cc1
IC50 (Large T antigen): 17.2 µM (active)

CCS(=O)(=O)N1Cc2ccccc2CC1C(=O)N1CCN(c2ccccc2)CC1 (stereo not drawn)
AC50 [1]: 12.1 µM (active)

COc1ccccc1N1CCN(C(=O)c2ccc(CSc3ccccc3)cc2)CC1
IC50 [2]: 8.99 µM (not active)

O=C(Nc1cccc(C(=O)O)c1)/C(=C\C=C\c1ccccc1)NC(=O)c1ccccc1
IC50 [2]: 13.6 µM (not active)

CCOC(=O)c1ccc(S(=O)(=O)Nc2nc3cc(S(=O)(=O)NC4=NCCCCC4)ccc3s2)cc1
IC50 (Large T antigen): 33.4 µM (active) | IC50 [3]: 107 µM (active)

Cn1c(=O)c(C(=O)COC(=O)c2cc(-c3ccco3)nc3ccccc23)c(N)n(CC2CC2)c1=O
IC50 [4]: 1.99 µM (active)
